Source: patent US5633009A, “Transdermal administration of azapirones” (Sano Corporation, priority 1993, dated 1997)

Experiments:
[1] = test system: nicotine dependence / nicotine withdrawal symptoms; test: smoking cessation: nicotine dependence and withdrawal symptoms in individuals attempting to stop smoking; type: in vivo, human; details: transdermal device of Example 1, 20 cm^2, changed once a day for 21 days; five individuals
Procedure: Transdermal delivery devices are prepared as described in Example 1.

depression = test: treatment of out-patients with clinically assessed depression; type: in vivo, human; details: transdermal device of Example 6, daily for four weeks; twenty out-patients in two groups
Procedure: Transdermal delivery devices are prepared as described in Example 6. Twenty out-patients comprised of both males and females and suffering from clinically assessed depression are divided into two groups.

premenstrual syndrome = test: treatment of women suffering from premenstrual syndrome; type: in vivo, human; details: transdermal device of Example 6, five days preceding the onset of menstruation; eight women
[2] = test system: psychogenic symptomatologies; details: oral; anxiety, depression, panic disorders, nicotine dependence and others; cited from earlier work
clinical = details: human, in vivo
[3] = in vivo, po; cited from earlier work
[4] = examination of patch for recrystallization after 24 months storage; type: physicochemical; details: Example 2 matrix patch (polyvinylacetate, isocetyl alcohol)
Procedure: The matrix layer mixture is slot die coated onto the backing layer. To do this, the mixture is allowed to flow through a slot to form a thin coat of a desired thickness, containing approximately 20 mg/cm^2 of the mixture, which is deposited onto a layer of polyester film laminate backing layer (ScotchPak 1012, 3M Corporation, St. Paul, Minn.).
A layer of double-sided pressure-sensitive polyacrylate adhesive and a layer of silicone coated polyester release liner are laminated to the face of the matrix facing away from the backing layer to form a quadruple laminate of backing layer/buspirone loaded matrix layer/pressure-sensitiveadhesive layer/release liner (peel strip) layer. […] For use, one transdermal buspirone delivery device is removed from its packet, the release liner (peel strip) layer is removed and discarded, and the pressure-sensitive adhesive layer is applied firmly to the patient's arm.

Tmax (clinical; po) [h]	AUC (clinical; topical or ocular) [µg·h/mL]	Cmax (clinical; topical or ocular) [ng/mL]	Tmax (clinical; topical or ocular) [h]	recrystallization in patch on storage [4]	Compound	nicotine dependence [1]	symptoms including drowsiness, restlessness, headache, irritability, inability to concentrate, and increased appetite [1]	improvement of depression versus placebo patches (depression)	premenstrual syndrome symptoms (premenstrual syndrome)	clinical response of psychogenic symptomatologies [2]	absorption from the gastrointestinal tract [3]
0.8	0.0127	0.79	16.5		O=C1CC2(CCCC2)CC(=O)N1CCCCN1CCN(c2ncccn2)CC1 [buspirone]	decrease in nicotine dependence	decrease in symptoms	significant improvement	decrease in their symptoms	responsive to oral buspirone	poorly absorbed
				no recrystallization	O=C1c2ccccc2S(=O)(=O)N1CCCCN1CCN(c2ncccn2)CC1 [ipsapirone]						
